Assay results reported in patent US5292733A, “Cephalosporin compounds” (Lucky Limited, priority 1991, dated 1994).
≈ marks a conversion by molar mass, not a printed value.

Columns and labels:
Assay in all cases: Antibacterial activity MIC, two-fold agar dilution
Format in all cases: cell-based
[1] = system: Acinetobacter calcoaceticus ATCC 15473; conditions: ATCC15473; Acinetobacter calcoaceticus ATCC 15473; Muller-Hinton agar, 37° C., 20 hours; read-out: Antibacterial Activity MIC
In short: (§1)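 The minimum inhibitory concentration was measured on Muller-Hinton agar plates holding halving compound concentrations. Plates received a 2 μl spot of strain suspension at 10^7 CFU per ml and were incubated for 20 hours at 37° C.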

[2] = system: Bacillus cereus ATCC 11778; conditions: ATCC11778; Bacillus cereus ATCC 11778; Muller-Hinton agar, 37° C., 20 hours; read-out: Antibacterial Activity MIC
In short: as §1

[3] = system: Bacillus megaterium ATCC 9885; conditions: Priestia megaterium, ATCC9885; Bacillus megaterium ATCC 9885; Muller-Hinton agar, 37° C., 20 hours; read-out: Antibacterial Activity MIC
In short: as §1

[4] = system: Citrobacter freundii ATCC 8090; conditions: ATCC8090; Citrobacter freundii ATCC 8090; Muller-Hinton agar, 37° C., 20 hours; read-out: Antibacterial Activity MIC
In short: as §1

[5] = system: Enterobacter aerogenes ATCC 29751; conditions: Klebsiella aerogenes, ATCC29751; Enterobacter aerogenes ATCC 29751; Muller-Hinton agar, 37° C., 20 hours; read-out: Antibacterial Activity MIC
In short: as §1

[6] = system: Enterobacter cloacae ATCC 27508; conditions: ATCC27508; Enterobacter cloacae ATCC 27508; Muller-Hinton agar, 37° C., 20 hours; read-out: Antibacterial Activity MIC
In short: as §1

[7] = system: Escherichia coli ATCC 10536; conditions: ATCC10536, Muller-Hinton agar, 37° C., 20 hours
In short: as §1

[8] = system: Escherichia coli ATCC 25922; conditions: ATCC25922, Muller-Hinton agar, 37° C., 20 hours
In short: as §1

[9] = system: Klebsiella pneumoniae ATCC 10031; conditions: ATCC10031; Klebsiella pneumoniae ATCC 10031; Muller-Hinton agar, 37° C., 20 hours; read-out: Antibacterial Activity MIC
In short: as §1

[10] = system: Micrococcus luteus ATCC 9341; conditions: ATCC9341; Micrococcus luteus ATCC 9341; Muller-Hinton agar, 37° C., 20 hours; read-out: Antibacterial Activity MIC
In short: as §1

[11] = system: Morganella morganii ATCC 8076h; conditions: ATCC8076H, Muller-Hinton agar, 37° C., 20 hours
In short: as §1

[12] = system: Proteus mirabilis ATCC 25933; conditions: ATCC25933; Proteus mirabilis ATCC 25933; Muller-Hinton agar, 37° C., 20 hours; read-out: Antibacterial Activity MIC
In short: as §1

[13] = system: Proteus vulgaris ATCC 6059; conditions: ATCC6059; Proteus vulgaris ATCC 6059; Muller-Hinton agar, 37° C., 20 hours; read-out: Antibacterial Activity MIC
In short: as §1

[14] = system: Providencia rettgeri ATCC 9250; conditions: ATCC9250, Muller-Hinton agar, 37° C., 20 hours
In short: as §1

[15] = system: Pseudomonas aeruginosa ATCC 10145; conditions: ATCC10145; Pseudomonas aeruginosa ATCC 10145; Muller-Hinton agar, 37° C., 20 hours; read-out: Antibacterial Activity MIC
In short: as §1

[16] = system: Pseudomonas aeruginosa ATCC 25619; conditions: ATCC25619; Pseudomonas aeruginosa ATCC 25619; Muller-Hinton agar, 37° C., 20 hours; read-out: Antibacterial Activity MIC
In short: as §1

[17] = system: Pseudomonas aeruginosa ATCC 27853; conditions: ATCC27853; Pseudomonas aeruginosa ATCC 27853; Muller-Hinton agar, 37° C., 20 hours; read-out: Antibacterial Activity MIC
In short: as §1

[18] = system: Salmonella typhimurium ATCC 14028; conditions: Salmonella enterica; Salmonella typhimurium ATCC 14028; Muller-Hinton agar, 37° C., 20 hours; read-out: Antibacterial Activity MIC
In short: as §1

[19] = system: Serratia marcescens ATCC 27117; conditions: ATCC27117; Serratia marcescens ATCC 27117; Muller-Hinton agar, 37° C., 20 hours; read-out: Antibacterial Activity MIC
In short: as §1

[20] = system: Shigella flexneri ATCC 11836; conditions: ATCC11836, Muller-Hinton agar, 37° C., 20 hours
In short: as §1

[21] = system: Shigella sonnei ATCC 11060; conditions: ATCC11060, Muller-Hinton agar, 37° C., 20 hours
In short: as §1

[22] = system: Staphylococcus aureus ATCC 10537; conditions: ATCC10537; Staphylococcus aureus ATCC 10537; Muller-Hinton agar, 37° C., 20 hours; read-out: Antibacterial Activity MIC
In short: as §1

[23] = system: Staphylococcus aureus ATCC 6538p; conditions: ATCC6538P; Staphylococcus aureus ATCC 6538p; Muller-Hinton agar, 37° C., 20 hours; read-out: Antibacterial Activity MIC
In short: as §1

[24] = system: Staphylococcus epidermidis ATCC 12228; conditions: ATCC12228; Staphylococcus epidermidis ATCC 12228; Muller-Hinton agar, 37° C., 20 hours; read-out: Antibacterial Activity MIC
In short: as §1

[25] = system: Streptococcus faecalis ATCC 29212; conditions: Enterococcus faecalis, ATCC29212; Streptococcus faecalis ATCC 29212; Muller-Hinton agar, 37° C., 20 hours; read-out: Antibacterial Activity MIC
In short: as §1

C[n+]1c(N)cc(SCC2=C(C(=O)[O-])N3C(=O)[C@@H](NC(=O)/C(=N\OC(C)(C)C(=O)O)c4csc(N)n4)[C@H]3SC2)nc1N [Compound I-12, (6R,7R)-7-[(Z)-2-(2-aminothiazol-4-yl)-2-(carboxyprop-2-oxyimino)acetamido]-3-(2,6-diamino-1-methylpyrimidinium-4-yl)thiomethyl-3-cephem-4-carboxylate]
MIC [1]: 8 µg/mL (≈ 12.8 µM)
MIC [2]: 128 µg/mL (≈ 205 µM)
MIC [3]: 0.25 µg/mL (≈ 0.401 µM)
MIC [4]: 0.13 µg/mL (≈ 0.208 µM)
MIC [5]: 2 µg/mL (≈ 3.21 µM)
MIC [6]: 0.031 µg/mL (≈ 0.0497 µM)
MIC [7]: 0.25 µg/mL (≈ 0.401 µM)
MIC [8]: 0.25 µg/mL (≈ 0.401 µM)
MIC [9]: 0.063 µg/mL (≈ 0.101 µM)
MIC [10]: 0.5 µg/mL (≈ 0.802 µM)
MIC [11]: ≤ 0.008 µg/mL
MIC [12]: 0.13 µg/mL (≈ 0.208 µM)
MIC [13]: 0.25 µg/mL (≈ 0.401 µM)
MIC [14]: ≤ 0.008 µg/mL
MIC [15]: 2 µg/mL (≈ 3.21 µM)
MIC [16]: 1 µg/mL (≈ 1.6 µM)
MIC [17]: 1 µg/mL (≈ 1.6 µM)
MIC [18]: 0.25 µg/mL (≈ 0.401 µM)
MIC [19]: 0.5 µg/mL (≈ 0.802 µM)
MIC [20]: 0.063 µg/mL (≈ 0.101 µM)
MIC [21]: 0.25 µg/mL (≈ 0.401 µM)
MIC [22]: 4 µg/mL (≈ 6.41 µM)
MIC [23]: 8 µg/mL (≈ 12.8 µM)
MIC [24]: 4 µg/mL (≈ 6.41 µM)
MIC [25]: > 128 µg/mL

C[n+]1c(N)cc(SCC2=C(C(=O)[O-])N3C(=O)[C@@H](NC(=O)/C(=N\OCC(=O)O)c4csc(N)n4)[C@H]3SC2)nc1N [Compound I-17, (6R,7R)-7-[(Z)-2-(2-aminothiazol-4-yl)-2-(carboxymethoxyimino)acetamido]-3-(2,6-diamino-1-methylpyrimidinium-4-yl)thiomethyl-3-cephem-4-carboxylate]
MIC [1]: 16 µg/mL (≈ 26.9 µM)
MIC [2]: > 128 µg/mL
MIC [3]: 0.5 µg/mL (≈ 0.839 µM)
MIC [4]: 0.031 µg/mL (≈ 0.052 µM)
MIC [5]: 1 µg/mL (≈ 1.68 µM)
MIC [6]: 0.016 µg/mL (≈ 0.0269 µM)
MIC [7]: 0.031 µg/mL (≈ 0.052 µM)
MIC [8]: 0.016 µg/mL (≈ 0.0269 µM)
MIC [9]: 0.031 µg/mL (≈ 0.052 µM)
MIC [10]: 1 µg/mL (≈ 1.68 µM)
MIC [11]: ≤ 0.008 µg/mL
MIC [12]: 0.031 µg/mL (≈ 0.052 µM)
MIC [13]: 0.063 µg/mL (≈ 0.106 µM)
MIC [14]: ≤ 0.008 µg/mL
MIC [15]: 4 µg/mL (≈ 6.72 µM)
MIC [16]: 1 µg/mL (≈ 1.68 µM)
MIC [17]: 2 µg/mL (≈ 3.36 µM)
MIC [18]: 0.063 µg/mL (≈ 0.106 µM)
MIC [19]: 0.063 µg/mL (≈ 0.106 µM)
MIC [20]: 0.016 µg/mL (≈ 0.0269 µM)
MIC [21]: 0.031 µg/mL (≈ 0.052 µM)
MIC [22]: 4 µg/mL (≈ 6.72 µM)
MIC [23]: 8 µg/mL (≈ 13.4 µM)
MIC [24]: 2 µg/mL (≈ 3.36 µM)
MIC [25]: > 128 µg/mL

CC(C)(O/N=C(\C(=O)NC1C(=O)N2C(C(=O)[O-])=C(CSc3nc(N)nc(N)[n+]3-c3ccccc3)CS[C@H]12)c1csc(N)n1)C(=O)O (stereo partly shown) [Compound I-25, 7-[(Z)-2-(2-aminothiazol-4-yl) -2-(2-carboxyprop-2-oxyimino)acetamido]-3-(4,6-diamino-1-phenyl-1,3,5-triazinium-2-yl)thiomethyl-3-cephem-4-carboxylate]
MIC [1]: 16 µg/mL (≈ 23.3 µM)
MIC [2]: 128 µg/mL (≈ 186 µM)
MIC [3]: 0.5 µg/mL (≈ 0.728 µM)
MIC [4]: 0.5 µg/mL (≈ 0.728 µM)
MIC [5]: 2 µg/mL (≈ 2.91 µM)
MIC [6]: 0.13 µg/mL (≈ 0.189 µM)
MIC [7]: 0.13 µg/mL (≈ 0.189 µM)
MIC [8]: 0.25 µg/mL (≈ 0.364 µM)
MIC [9]: 0.25 µg/mL (≈ 0.364 µM)
MIC [10]: 0.5 µg/mL (≈ 0.728 µM)
MIC [11]: ≤ 0.008 µg/mL
MIC [12]: 0.13 µg/mL (≈ 0.189 µM)
MIC [13]: 0.13 µg/mL (≈ 0.189 µM)
MIC [14]: ≤ 0.008 µg/mL
MIC [15]: 4 µg/mL (≈ 5.82 µM)
MIC [16]: 1 µg/mL (≈ 1.46 µM)
MIC [17]: 2 µg/mL (≈ 2.91 µM)
MIC [18]: 0.25 µg/mL (≈ 0.364 µM)
MIC [19]: 0.13 µg/mL (≈ 0.189 µM)
MIC [20]: 0.13 µg/mL (≈ 0.189 µM)
MIC [21]: 0.25 µg/mL (≈ 0.364 µM)
MIC [22]: 4 µg/mL (≈ 5.82 µM)
MIC [23]: 4 µg/mL (≈ 5.82 µM)
MIC [24]: 4 µg/mL (≈ 5.82 µM)
MIC [25]: > 128 µg/mL

CC[n+]1c(SCC2=C(C(=O)[O-])N3C(=O)[C@@H](NC(=O)/C(=N\OC(C)(C)C(=O)O)c4csc(N)n4)[C@H]3SC2)cc(N)nc1N [Compound I-2, (6R,7R)-7-[(Z)-2-(2-aminothiazol-4-yl)-2-(carboxyprop-2-oxyimino)acetamido]-3-(2,6-diamino-3-ethylpyrimidinium-4-yl)thiomethyl-3-cephem-4-carboxylate]
MIC [1]: 4 µg/mL (≈ 6.27 µM)
MIC [2]: 64 µg/mL (≈ 100 µM)
MIC [3]: 0.25 µg/mL (≈ 0.392 µM)
MIC [4]: 0.13 µg/mL (≈ 0.204 µM)
MIC [5]: 1 µg/mL (≈ 1.57 µM)
MIC [6]: 0.016 µg/mL (≈ 0.0251 µM)
MIC [7]: 0.063 µg/mL (≈ 0.0988 µM)
MIC [8]: 0.063 µg/mL (≈ 0.0988 µM)
MIC [9]: 0.031 µg/mL (≈ 0.0486 µM)
MIC [10]: 0.5 µg/mL (≈ 0.784 µM)
MIC [11]: ≤ 0.008 µg/mL
MIC [12]: 0.31 µg/mL (≈ 0.486 µM)
MIC [13]: 0.13 µg/mL (≈ 0.204 µM)
MIC [14]: ≤ 0.008 µg/mL
MIC [15]: 1 µg/mL (≈ 1.57 µM)
MIC [16]: 1 µg/mL (≈ 1.57 µM)
MIC [17]: 1 µg/mL (≈ 1.57 µM)
MIC [18]: 0.5 µg/mL (≈ 0.784 µM)
MIC [19]: 0.13 µg/mL (≈ 0.204 µM)
MIC [20]: 0.031 µg/mL (≈ 0.0486 µM)
MIC [21]: 0.25 µg/mL (≈ 0.392 µM)
MIC [22]: 4 µg/mL (≈ 6.27 µM)
MIC [23]: 4 µg/mL (≈ 6.27 µM)
MIC [24]: 1 µg/mL (≈ 1.57 µM)
MIC [25]: > 128 µg/mL
